{"source": "patent US20250361240A1", "about": "“PYRANOPYRIDINE COMPOUND, PROCESS FOR PREPARING THE SAME, PHARMACEUTICAL COMPOSITION AND USE THEREOF” (Zhejiang Yangli Pharmaceutical Technology Co., Ltd., priority 2024, published 2025)", "key": {"[1]": {"test": "Pharmacokinetic test in cynomolgus monkeys (LC/MS)", "format": "in vivo, cynomolgus monkeys (Macaca fascicularis)", "conditions": "both sexes, cynomolgus monkey, plasma; for AUC(0-t): read-out: AUC0-24 h", "source_text": "(§1) Adult cynomolgus monkeys (Macaca fascicularis) with suitable body weight and age were selected. 1 male and 1 female cynomolgus monkeys were used for experiment. The adaptation period was 1 week. On the day of the experiment, monkeys were individually housed in stainless steel mesh cages for testing.\n(§2) Oral treatment and ACTH working solution (working solution diluted to the desired concentration in PBS sterile solution by ultrapure water filtration through a 0.22 μm filter using Tetracosactrin (HY-P0060, MCE)) were administered as follows: • T=0, 2 monkeys in each group were orally administered 0.5 mg/kg (compound was suspended in 5% aqueous sodium hydroxymethylcellulose solution as vehicle) in a fixed volume of 2 mL/kg; • T=+1 hour (i.e., 1 hour after administration), 14.5 μg/kg of the aforementioned ACTH working solution was injected intramuscularly.\n(§3) Sampling test: Blood samples (collected in EDTA anticoagulant tubes) were collected before oral administration (Pre-dose) and 0.5 h, 1 h, 2 h, 4 h, 6 h and 12 h after administration for cortisol concentration measurement in plasma. The blood was centrifuged at 10000 rpm for 15 minutes at 4° C., followed by separation of the plasma and uniform storage at −80° C. for further analysis using an Roche biochemical analyzer to detect aldosterone and cortisol in plasma, and a portion of the plasma (0.5 h, 1 h, 2 h, 4 h, 6 h, and 12 h after administration, and an additional blood collection after 24 h) was taken simultaneously to determine the pharmacokinetic parameters by LC/MS.\n(§4) The above experiment was repeated except that: T=0, two monkeys in each group were orally administered at a dose of 0.05 mg/kg (compound was suspended in 5% aqueous sodium hydroxymethylcellulose as vehicle) in a fixed volume of 2 mL/kg."}, "CYP1A2": {"biological_target": "CYP1A2 (Homo sapiens (Human), UniProt P05177)", "sequence (P05177 whole entry)": "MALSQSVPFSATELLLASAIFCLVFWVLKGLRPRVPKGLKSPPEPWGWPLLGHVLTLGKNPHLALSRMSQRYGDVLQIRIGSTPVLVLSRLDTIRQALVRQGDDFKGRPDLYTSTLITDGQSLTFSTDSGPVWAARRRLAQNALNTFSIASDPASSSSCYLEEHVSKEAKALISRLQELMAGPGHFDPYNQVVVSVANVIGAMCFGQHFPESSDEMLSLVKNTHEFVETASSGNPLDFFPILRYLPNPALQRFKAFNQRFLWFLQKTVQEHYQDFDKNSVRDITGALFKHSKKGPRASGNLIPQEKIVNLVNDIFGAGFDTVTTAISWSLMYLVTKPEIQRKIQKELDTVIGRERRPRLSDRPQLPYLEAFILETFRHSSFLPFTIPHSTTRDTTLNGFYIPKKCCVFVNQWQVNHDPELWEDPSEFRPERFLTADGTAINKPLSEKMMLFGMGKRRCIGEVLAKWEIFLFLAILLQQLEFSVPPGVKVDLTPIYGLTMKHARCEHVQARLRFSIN", "test": "In vitro inhibitory activity against common CYP450 enzymes: CYP1A2", "format": "in vitro ADME", "conditions": "microsomes, substrate Phenacetin; read-out: IC50 CYP1A2", "procedure": "(§5) A working solution of the test compound was prepared in a solvent of dimethyl sulfoxide (DMSO) (starting at a final concentration of 50 μM, 3-fold dilution of 7 concentration points). The corresponding microsomes (CORNING, Cat No.452117) and the corresponding substrate solution were prepared (components were shown in Table 2). The working solution of the test compound and the corresponding microsomes were mixed with the corresponding substrate solution and the HLM working solution. The mixture was preheated in a 37.0° C. water bath for 10 min. NADPH cofactor (BONTAC, Cat No.BT04) was added. The resultant mixture was incubated for 10 min in a 37.0° C. water bath. The reaction was terminated by adding cold stop solution. [table] [table] The sample was centrifuged at 4000 rpm for 20 min to precipitate protein and the supernatant was transferred to HPLC water and shaken for 10 min."}, "CYP2D6": {"biological_target": "CYP2D6 (Homo sapiens (Human), UniProt P10635)", "sequence (P10635 whole entry)": "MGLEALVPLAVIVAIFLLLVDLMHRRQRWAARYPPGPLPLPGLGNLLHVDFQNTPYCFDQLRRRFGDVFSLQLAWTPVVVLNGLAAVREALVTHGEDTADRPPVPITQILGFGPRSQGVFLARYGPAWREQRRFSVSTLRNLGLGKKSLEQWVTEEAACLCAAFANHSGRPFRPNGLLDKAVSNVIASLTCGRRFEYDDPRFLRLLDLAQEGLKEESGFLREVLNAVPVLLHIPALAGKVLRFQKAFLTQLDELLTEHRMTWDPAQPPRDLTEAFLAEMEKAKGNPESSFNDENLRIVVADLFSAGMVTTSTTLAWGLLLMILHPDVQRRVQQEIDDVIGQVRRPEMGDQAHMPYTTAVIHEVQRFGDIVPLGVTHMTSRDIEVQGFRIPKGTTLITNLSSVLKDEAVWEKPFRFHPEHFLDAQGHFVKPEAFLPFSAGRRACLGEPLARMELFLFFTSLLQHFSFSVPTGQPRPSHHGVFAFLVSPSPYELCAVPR", "test": "In vitro inhibitory activity against common CYP450 enzymes: CYP2D6", "format": "in vitro ADME", "conditions": "microsomes, substrate Dextromethorphan", "procedure": "as §5"}, "aldosterone synthesis": {"tested_on": "aldosterone synthesis", "test": "Pharmacodynamic test in cynomolgus monkeys with ACTH stimulation: aldosterone in plasma", "format": "in vivo, cynomolgus monkeys (Macaca fascicularis)", "source_text": "as §1, §2, §3, §4"}}, "note": "Like-named read-outs stand apart in the source and are kept apart here.", "data": [{"molecule": "CCC(=O)N[C@@H]1CCCc2c(-c3ccc4c(c3)CCC(=O)N4C)cncc21", "note": "[Baxdrostat, reference compound]", "values": [{"measurement": "Cmax", "setting": "[1]; 0.05 mg/kg, 0.05mpk oral", "result": 6.13, "unit": "ng/mL"}, {"measurement": "Tmax", "setting": "[1]; 0.05 mg/kg, 0.05mpk oral", "result": 2, "unit": "h"}, {"measurement": "half-life", "setting": "[1]; 0.05 mg/kg, 0.05mpk oral", "result": 10.9, "unit": "h"}, {"measurement": "AUC(0-t)", "setting": "[1]; 0.05 mg/kg, 0.05mpk oral", "result": 90.3, "unit": "ng·h/mL"}, {"measurement": "Cmax", "setting": "[1]; 0.5 mg/kg, 0.5mpk oral", "result": 56.1, "unit": "ng/mL"}, {"measurement": "Tmax", "setting": "[1]; 0.5 mg/kg, 0.5mpk oral", "result": 2, "unit": "h"}, {"measurement": "half-life", "setting": "[1]; 0.5 mg/kg, 0.5mpk oral", "result": 9.25, "unit": "h"}, {"measurement": "AUC(0-t)", "setting": "[1]; 0.5 mg/kg, 0.5mpk oral", "result": 606, "unit": "ng·h/mL"}, {"measurement": "IC50", "setting": "CYP1A2", "result": "> 50", "unit": "µM"}, {"measurement": "IC50", "setting": "CYP2D6", "result": "> 50", "unit": "µM"}, {"measurement": "Aldosterone Concentration in Plasma", "setting": "aldosterone synthesis; 0.05 mg/kg oral, 0.5 h", "result": 846.13, "unit": "pg/mL"}, {"measurement": "Aldosterone Concentration in Plasma", "setting": "aldosterone synthesis; 0.05 mg/kg oral, 1 h (ACTH at +1 hour)", "result": 964.09, "unit": "pg/mL"}, {"measurement": "Aldosterone Concentration in Plasma", "setting": "aldosterone synthesis; 0.05 mg/kg oral, 2 h", "result": 568.08, "unit": "pg/mL"}, {"measurement": "Aldosterone Concentration in Plasma", "setting": "aldosterone synthesis; 0.05 mg/kg oral, 4 h", "result": 119.97, "unit": "pg/mL"}, {"measurement": "Aldosterone Concentration in Plasma", "setting": "aldosterone synthesis; 0.05 mg/kg oral, 6 h", "result": 101.14, "unit": "pg/mL"}, {"measurement": "Aldosterone Concentration in Plasma", "setting": "aldosterone synthesis; 0.05 mg/kg oral, 12 h", "result": 139.85, "unit": "pg/mL"}, {"measurement": "Aldosterone Concentration in Plasma", "setting": "aldosterone synthesis; 0.05 mg/kg oral, Pre-dose", "result": 292.42, "unit": "pg/mL"}, {"measurement": "Aldosterone Concentration in Plasma", "setting": "aldosterone synthesis; 0.5 mg/kg oral, 0.5 h", "result": 593.37, "unit": "pg/mL"}, {"measurement": "Aldosterone Concentration in Plasma", "setting": "aldosterone synthesis; 0.5 mg/kg oral, 1 h (ACTH at +1 hour)", "result": 361.74, "unit": "pg/mL"}, {"measurement": "Aldosterone Concentration in Plasma", "setting": "aldosterone synthesis; 0.5 mg/kg oral, 2 h", "result": 119.96, "unit": "pg/mL"}, {"measurement": "Aldosterone Concentration in Plasma", "setting": "aldosterone synthesis; 0.5 mg/kg oral, 4 h", "result": 83.97, "unit": "pg/mL"}, {"measurement": "Aldosterone Concentration in Plasma", "setting": "aldosterone synthesis; 0.5 mg/kg oral, 6 h", "result": 86.11, "unit": "pg/mL"}, {"measurement": "Aldosterone Concentration in Plasma", "setting": "aldosterone synthesis; 0.5 mg/kg oral, 12 h", "result": 92.61, "unit": "pg/mL"}, {"measurement": "Aldosterone Concentration in Plasma", "setting": "aldosterone synthesis; 0.5 mg/kg oral, Pre-dose", "result": 126.77, "unit": "pg/mL"}]}]}
